What all share (experiment): In vitro metalloprotease inhibition, fluorogenic MCA peptide substrate
Holding throughout (type): biochemical

One experiment has as its target T1, MMP-13 (Homo sapiens, UniProt P45452).
T1 construct: made in house; host or cells: baculovirus / insect cells
Particulars: APMA-activated, room temperature, pH 7.5.

Another experiment addresses T2, MMP-1 (Homo sapiens, UniProt P03956).
T2 construct: host or cells: transfected HT-1080 cells
T2 sequence (P03956 100-469): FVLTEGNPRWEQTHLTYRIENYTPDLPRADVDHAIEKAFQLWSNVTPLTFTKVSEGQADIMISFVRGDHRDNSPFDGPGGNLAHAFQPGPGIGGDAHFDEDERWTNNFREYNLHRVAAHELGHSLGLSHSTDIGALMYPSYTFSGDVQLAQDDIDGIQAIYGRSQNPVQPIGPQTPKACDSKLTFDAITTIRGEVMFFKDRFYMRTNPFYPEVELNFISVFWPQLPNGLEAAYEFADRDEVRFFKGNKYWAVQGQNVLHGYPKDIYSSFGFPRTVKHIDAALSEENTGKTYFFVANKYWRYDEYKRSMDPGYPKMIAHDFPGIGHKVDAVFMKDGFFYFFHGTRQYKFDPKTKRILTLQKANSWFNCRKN
Particulars: recombinant human enzyme, APMA-activated, room temperature, pH 7.5.

For a further experiment, the target named is T3, MMP-2 (Homo sapiens, UniProt P08253).
T3 sequence (P08253 110-660): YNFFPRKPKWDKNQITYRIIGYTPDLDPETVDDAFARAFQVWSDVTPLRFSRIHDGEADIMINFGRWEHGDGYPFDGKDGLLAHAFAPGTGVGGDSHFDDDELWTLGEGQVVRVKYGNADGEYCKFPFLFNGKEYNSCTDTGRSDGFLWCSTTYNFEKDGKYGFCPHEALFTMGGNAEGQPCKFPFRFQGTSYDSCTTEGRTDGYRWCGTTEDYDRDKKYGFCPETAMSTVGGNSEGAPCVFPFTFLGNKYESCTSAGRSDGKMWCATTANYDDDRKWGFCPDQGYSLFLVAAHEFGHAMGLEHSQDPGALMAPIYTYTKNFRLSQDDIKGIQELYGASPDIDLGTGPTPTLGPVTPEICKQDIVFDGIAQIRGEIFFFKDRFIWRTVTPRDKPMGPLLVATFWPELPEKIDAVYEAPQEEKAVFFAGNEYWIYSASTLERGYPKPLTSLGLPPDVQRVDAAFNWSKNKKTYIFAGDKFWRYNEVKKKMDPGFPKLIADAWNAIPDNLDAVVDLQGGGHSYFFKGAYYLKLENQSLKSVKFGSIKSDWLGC
Particulars: room temperature, pH 7.5.

[1] abbreviates: recombinant human enzyme, read-out: MMP-13 IC50.
[2] abbreviates: MMP-13 IC50, recombinant human enzyme.

IC50 data for 43 molecules are collected here from US6583299B1, “α-amino-β-sulfonyl hydroxamic acid compounds” (priority 1999, dated 2003).

Broadly, the IC50 is the concentration that inhibits the measured activity by half.

Values joined by “and” are separate entries in the source; they are usually repeats but may differ in a detail not shown here. Equal values may be shown once. Read-outs that look alike come from different tables or passages of the source.

Procedure for MMP-13: Briefly, 4-aminophenylmercuric acetate (APMA) or trypsin-activated MMPs were incubated with various concentrations of the inhibitor compound at room temperature for 5 minutes.
The expressed enzyme was purified first over a heparin agarose column and then over a chelating zinc chloride column. The proenzyme was activated by APMA for use in the assay.
The enzyme substrate is a methoxycoumarin-containing polypeptide having the following sequence:
MCA-ProLeuGlyLeuDpaAlaArgNH2, wherein MCA is methoxycoumarin and Dpa is 3-(2,4-dinitrophenyl)-L-2,3-diaminopropionyl alanine.
The assayed inhibitor compound in DMSO/buffer solution was compared to an equal amount of DMSO/buffer with no inhibitor as control using Microfluor™ White Plates (Dynatech). The inhibitor or control solution was maintained in the plate for 10 minutes and the substrate was added to provide a final concentration of 4 μM.
Inhibition was measured as a reduction in fluorescent intensity as a function of inhibitor concentration, using a Perkin Elmer L550 plate reader. The IC50 values were calculated from those values.
Procedure for MMP-2: Briefly, 4-aminophenylmercuric acetate (APMA) or trypsin-activated MMPs were incubated with various concentrations of the inhibitor compound at room temperature for 5 minutes. […] The assayed inhibitor compound in DMSO/buffer solution was compared to an equal amount of DMSO/buffer with no inhibitor as control using MicrofluorTM White Plates (Dynatech). The inhibitor or control solution was maintained in the plate for 10 minutes and the substrate was added to provide a final concentration of 4 μM. […] Inhibition was measured as a reduction in fluorescent intensity as a function of inhibitor concentration, using a Perkin Elmer [MUT] plate reader. The IC50 values were calculated from those values.

Turning to `COc1ccc(S(=O)(=O)CC(NC(C)=O)C(=O)NO)cc1` (stereo not shown) [Example 1, N-Hydroxy-3-[(4-methoxyphenyl)sulfonyl]-2-[(methylcarbonyl)amino]propanamide], the IC50 on MMP-13 (setting [1]) was found to be 15 nM; at MMP-1, 300 nM.

For `CC(C)(C)OC(=O)NC(C)(CS(=O)(=O)c1ccc(NC(=O)c2ccccc2)cc1)C(=O)NO` (stereo not shown) [Example 62], the IC50 was determined as 1200 nM on MMP-13 (setting [1]), 72.3 nM at MMP-1 and 23.9 nM at MMP-2.

Regarding `COc1cccc(OC)c1C(=O)N[C@@H](CS(=O)(=O)c1ccc(Oc2ccccc2)cc1)C(=O)NO` [Example 37], the results for the IC50 at MMP-13 (setting [1]), at MMP-1 and against MMP-2 were 0.4 nM, 350 nM and 0.25 nM, respectively.

As for `CC(C)(C)C(=O)NC(CS(=O)(=O)c1ccc(Oc2ccccc2)cc1)C(=O)NO` (stereo not shown) [Example 10d], the IC50 on MMP-13 (setting [1]) came to 2.7 nM; on MMP-1, 1600 nM.

On to `COc1ccc(S(=O)(=O)CC(NC(=O)CNC(=O)OCc2ccccc2)C(=O)NO)cc1` (stereo not shown) [Example 6, Phenylmethyl-[2-[[2-(hydroxyamino)-2-oxo-1-[[[4-methoxyphenyl]sulfonyl]methyl]ethyl]amino]-2-oxoethyl]carbamate], for which the figures for the IC50 on MMP-13 (setting [1]) and on MMP-1 were under 1 nM and 40 nM, respectively.

As for `O=C(NC(CS(=O)(=O)c1ccc(Sc2ccccc2)cc1)C(=O)NO)c1ccccc1-c1ccccc1` (stereo not shown) [Example 35], the half-inhibitory concentration (IC50) amounted to 0.2 nM on MMP-13 (setting [1]) and 3000 nM at MMP-1.

On to `O=C(NC(CS(=O)(=O)c1ccc(Oc2ccccc2)cc1)(C(=O)NO)c1ccccc1)c1ccccc1` (stereo not shown) [Example 65], for which the IC50 on MMP-13 (setting [1]) amounted to 161 nM.

On to `C[C@H](NC(=O)OCc1ccccc1)C(=O)NC(CS(=O)(=O)c1ccc(Sc2ccccc2)cc1)C(=O)NO` (stereo partly shown) [Example 19a], for which the IC50 was 0.8 nM at MMP-13 (setting [1]) and over 10000 nM on MMP-1.

Turning to `COc1ccc(S(=O)(=O)CC(NS(C)(=O)=O)C(=O)NO)cc1` (stereo not shown) [Example 21], the concentration for half-maximal inhibition (IC50) on MMP-13 (setting [1]) was found to be 15 nM; at MMP-1, 300 nM.

For the molecule `CC(=O)N[C@@H](CS(=O)(=O)c1ccc(Sc2ccccc2)cc1)C(=O)NO` [Example 30], the IC50 is 2.9 nM at MMP-13 (setting [1]) and 0.5 nM against MMP-2.

Turning to `O=C(NO)[C@H](CS(=O)(=O)c1ccc(Oc2ccccc2)cc1)N1CCCCC1` [Example 54], the values for the IC50 on MMP-13 (setting [1]), on MMP-1 and on MMP-2 were 0.3 nM, 345 nM and 0.2 nM, respectively.

As for `O=C(NC(CS(=O)(=O)c1ccc(Sc2ccccc2)cc1)C(=O)NO)c1cccnc1` (stereo not shown) [Example 29], the IC50 was 7 nM on MMP-13 (setting [1]) and over 10000 nM at MMP-1.

`Cc1ccc(S(=O)(=O)NC(CS(=O)(=O)c2ccc(Oc3ccccc3)cc2)C(=O)NO)cc1` (stereo not shown) [Example 12c]: the values for the IC50 at MMP-13 (setting [1]), at MMP-1 and at MMP-2 were 0.6 nM, 400 nM and under 0.1 nM, respectively.

On to `COc1ccc(CC(=O)NC(CS(=O)(=O)c2ccc(Sc3ccccc3)cc2)C(=O)NO)c(OC)c1` (stereo not shown) [Example 31], for which the concentration for half-maximal inhibition (IC50) at MMP-13 (setting [1]) was found to be 0.4 nM; at MMP-1 it was 3000 nM; on MMP-2, 0.8 nM.

Consider `CN(C)C(C)(CS(=O)(=O)c1ccc(Oc2ccccc2)cc1)C(=O)NO` (stereo not shown) [Example 52], for which the IC50 on MMP-13 (setting [1]) was determined as 24 nM.

`CN(Cc1ccccc1)[C@H](CS(=O)(=O)c1ccc(Oc2ccccc2)cc1)C(=O)NO` [Example 48]: the IC50 on MMP-13 (setting [1]) was 0.2 nM; on MMP-1, 475 nM; against MMP-2 it was under 0.1 nM.

Turning to `N[C@H](CNO)CS(=O)(=O)c1ccc(Oc2ccccc2)cc1` [Example 60], the IC50 at MMP-13 (setting [1]) was 0.4 nM; at MMP-1 it was 440 nM; on MMP-2, 0.3 nM.

Take `CC(N)(CS(=O)(=O)c1ccc(Oc2ccccc2)cc1)C(=O)NO` (stereo not shown) [Example 38]: the concentration for half-maximal inhibition (IC50) worked out at 0.5 nM on MMP-13 (setting [2]) and 170 nM on MMP-1.

In the case of `CC(C)(C)OC(=O)N[C@@H](CS(=O)(=O)c1ccc(Oc2ccccc2)cc1)C(=O)NO` [Example 33], the values for the IC50 on MMP-13 (setting [1]), at MMP-1 and on MMP-2 were 0.3 nM, 500 nM and 0.2 nM, respectively.

As for `O=C(CNC(=O)OCc1ccccc1)NC(CS(=O)(=O)c1ccc(Sc2ccccc2)cc1)C(=O)NO` (stereo not shown) [Example 16c, Phenylmethyl-[2-[[2-(hydroxyamino)-2-oxo-1-[[[4-(phenylthio)-phenyl]sulfonyl]methyl]ethyl]amino]-2-oxoethyl]carbamate], the figures for the IC50 on MMP-13 (setting [1]) and on MMP-1 were 0.8 nM and over 10000 nM, respectively.

On to `CC(CS(=O)(=O)c1ccc(Oc2ccccc2)cc1)(NCc1ccc2c(c1)OCO2)C(=O)NO` (stereo not shown) [Example 66], for which, at MMP-13 (setting [1]), the concentration for half-maximal inhibition (IC50) came to 1.1 nM.

In the case of `CC(CS(=O)(=O)c1ccc(Oc2ccccc2)cc1)(NCCc1ccccc1)C(=O)NO` (stereo not shown) [Example 67], the half-maximal inhibitory concentration (IC50) on MMP-13 (setting [1]) came to 2.4 nM; on MMP-1 it was 2400 nM.

`CC(N)(CS(=O)(=O)c1ccc(Sc2ccccc2)cc1)C(=O)NO` (stereo not shown) [Example 58]: the 50% inhibitory concentration (IC50) worked out at 2.4 nM at MMP-13 (setting [1]) and 4400 nM at MMP-1.

Turning to `O=C(NC(CS(=O)(=O)c1ccc(Sc2ccccc2)cc1)C(=O)NO)OCc1ccccc1` (stereo not shown) [Example 14c, Phenylmethyl-[2-(hydroxyamino)-2-oxo-1-[[[4-(phenylthio)-phenyl]sulfonyl]methyl]ethyl]carbamate], the half-maximal inhibitory concentration (IC50) was 3.7 nM at MMP-13 (setting [1]) and over 10000 nM at MMP-1.

For `CCCCC(=O)NC(CS(=O)(=O)c1ccc(Sc2ccccc2)cc1)C(=O)NO` (stereo not shown) [Example 11g, N-[1-[(Hydroxyamino)carbonyl]-2-[[4-(phenylthio)phenyl]sulfonyl]ethyl]pentanamide], the 50% inhibitory concentration (IC50) on MMP-13 (setting [1]) was determined as 6 nM.

For the molecule `COc1ccc(S(=O)(=O)CC(NC(=O)NC(C)(C)C)C(=O)NO)cc1` (stereo not shown) [Example 2, 2-[[[(1,1-Dimethylethyl)amino]carbonyl]amino]-N-hydroxy-3-[(4-methoxyphenyl)sulfonyl]propanamide], the IC50 at MMP-13 (setting [1]) is 15 nM; at MMP-1 it was 1500 nM.

Consider `O=C(N[C@@H](CS(=O)(=O)c1ccc(Sc2ccccc2)cc1)C(=O)NO)OCc1ccccc1` [Example 32], for which the IC50 is 0.4 nM on MMP-13 (setting [1]) and 8000 nM on MMP-1.

For the molecule `CC(N)(CS(=O)(=O)c1ccc(Oc2ccccc2)cc1)C(=O)NO` (stereo not shown) [Example 39], the IC50 on MMP-13 (setting [2]) was 0.3 nM and 1.1 nM; on MMP-1 it was 114 nM and 225 nM.

In the case of `O=C(NC(CS(=O)(=O)c1ccc(Sc2ccccc2)cc1)C(=O)NO)c1ccccc1` (stereo not shown) [Example 34], the concentration for half-maximal inhibition (IC50) was 5 nM on MMP-13 (setting [1]) and over 10000 nM at MMP-1.

On to `CC(=O)NC(C)(CS(=O)(=O)c1ccc(Sc2ccccc2)cc1)C(=O)NO` (stereo not shown) [Example 57], for which the 50% inhibitory concentration (IC50) on MMP-13 (setting [1]) was 580 nM.

As for `CC(CS(=O)(=O)c1ccc(Oc2ccccc2)cc1)(NCc1ccccc1)C(=O)NO` (stereo not shown) [Example 56], the 50% inhibitory concentration (IC50) at MMP-13 (setting [1]) is 0.3 nM.

For the molecule `O=C(NC(CS(=O)(=O)c1ccc(Sc2ccccc2)cc1)C(=O)NO)c1ccco1` (stereo not shown) [Example 27], the IC50 on MMP-13 (setting [1]) was 14 nM; at MMP-1 it was over 10000 nM.

Turning to `CC(C)(C)NC(=O)NC(CS(=O)(=O)c1ccc(Sc2ccccc2)cc1)C(=O)NO` (stereo not shown) [Example 20b], the IC50 is 4 nM on MMP-13 (setting [1]) and over 10000 nM on MMP-1.

Take `CC(CS(=O)(=O)c1ccc(Oc2ccccc2)cc1)(NC(=O)CN1CCCC1)C(=O)NO` (stereo not shown) [Example 49]: the IC50 at MMP-13 (setting [1]) stood at 160 nM.

With `O=C(NC(CS(=O)(=O)c1ccc(Sc2ccccc2)cc1)C(=O)NO)c1cccc2ccccc12` (stereo not shown) [Example 36], the concentration for half-maximal inhibition (IC50) at MMP-13 (setting [1]) is 2.5 nM; at MMP-1, over 10000 nM.

Turning to `Cc1ccc(S(=O)(=O)NC(CS(=O)(=O)c2ccc(Sc3ccccc3)cc2)C(=O)NO)cc1` (stereo not shown) [Example 17c], the half-inhibitory concentration (IC50) at MMP-13 (setting [1]) stood at 0.4 nM; on MMP-1, 600 nM.

As for `CC(C)(C)NC(=O)NC(CS(=O)(=O)c1ccc(Sc2ccccc2)cc1)C(=O)NO` (stereo not shown) [Example 45], at MMP-13 (setting [1]), the IC50 came out at 5 nM.

Consider `NC(CS(=O)(=O)c1ccc(Oc2ccccc2)cc1)(C(=O)NO)c1ccccc1` (stereo not shown) [Example 70], for which the half-maximal inhibitory concentration (IC50) at MMP-13 (setting [1]) was 0.4 nM; on MMP-1 it was 130 nM.

As to `C#CCNC(C)(CS(=O)(=O)c1ccc(Oc2ccccc2)cc1)C(=O)NO` (stereo not shown) [Example 69], the IC50 amounted to 0.6 nM at MMP-13 (setting [1]) and 700 nM on MMP-1.

As to `NC(CS(=O)(=O)c1ccc(Sc2ccccc2)cc1)C(=O)NO` (stereo not shown) [Example 18a], the half-maximal inhibitory concentration (IC50) at MMP-13 (setting [1]) is 24 nM; at MMP-1, over 10000 nM.

In the case of `CC(=O)N[C@@H](CS(=O)(=O)c1ccc(Oc2ccccc2)cc1)C(=O)NO` [Example 9g, N^2-Acetyl-N^1-hydroxyl-3-[(4-phenoxyphenyl)sulphonyl]alaninamide], the IC50 came to 1.1 nM on MMP-13 (setting [1]) and 770 nM at MMP-1.

With `CC(CS(=O)(=O)c1ccc(Oc2ccccc2)cc1)(NCc1ccc2ccccc2c1)C(=O)NO` (stereo not shown) [Example 68], the half-maximal inhibitory concentration (IC50) on MMP-13 (setting [1]) came to 1.4 nM.

Regarding `CCNC(C)(CS(=O)(=O)c1ccc(Oc2ccccc2)cc1)C(=O)NO` (stereo not shown) [Example 55], the IC50 at MMP-13 (setting [1]) was 1.6 nM; at MMP-1, 1600 nM.
